The conditions of data set [1]: given intravenously every 2 weeks; cited from earlier work.
The next data set deals with LLC tumors. The data set is described as follows: LLC tumor model, ABC294640 in combination with anti-CTLA4 antibody (Example 9). In kind it is in vivo, mice. The method, then:
The combined effects of treating tumor-bearing mice with ABC294640 and anti-CTLA41 antibody were examined in the LLC tumor model. Anti-mouse CTLA-4 (catalog number BE0131) antibody was purchased from BioXCell (West Lebanon, N.H.). Mice were injected with 1,000,000 LLC cells suspended in PBS into the right hind flank subcutaneously on Day 0 of the experiment. Mice were randomized On Day 3 of the experiment into the following four treatment groups (n=5/group): Control (vehicle only); ABC294640 alone; anti-CTLA4 antibody alone; and ABC294640 in combination with anti-CTLA4 antibody. ABC294640 was suspended in vehicle (46.7% PEG, 46.7% saline and 6.6% ethanol) and dosed by oral gavage at 50 mg/kg 5 days/week (i.e. days 3-7, 10-14, 17-21, etc.) until sacrifice. Anti-CTLA4 antibody was suspended in dilution buffer (BioXCell, catalog number IP0070) and administered by intraperitoneal (i.p.) injection at a dose of 200 μg/mouse on Days 3, 6, 10, 13, 17 and 20. The combination treatment group mice received antibody and ABC294640 treatments concomitantly on days when antibody was scheduled. Control group mice received oral vehicle and/or sterile PBS i.p. on all days that treated mice received either ABC294640 or antibody. Tumors were measured with digital calipers three times per week and volumes were calculated using the formula, (L×W^2)/2. Mice were euthanized when tumor volumes reached ≥3,000 mm^3. […] Tumors in the Control mice grew progressively after a lag of approximately 7 days. On Day 21, the average tumor volumes for the Control, ABC294640 alone, anti-CTLA4 antibody alone, and combination treatment groups were 4622±548, 3197±914, 3029±675 and 1274±336 mm^3, respectively. […] As directed by the IACUC protocol, each mouse was sacrificed when its tumor volume reached 3,000 mm^3. […] The combination of ABC294640 plus anti-CTLA4 antibody increased median survival to >26 days, and 60% of these mice survived to Day 26.

The subject of another data set is E0771. Kind of data set: Surface expression of calreticulin by flow cytometry, E0771. The class given is cell-based. To be noted: E0771 (Breast); 40 μM ABC294640, 24 hours; relative to DMSO control = 1.0; logarithmic scale. The method, then:
(§1) One indicator that tumor cells are undergoing immunogenic cell death (ICD) is increased expression of calreticulin on the surface of the cells. Calreticulin is normally expressed in the endoplasmic reticulum (ER) of cells; however, when cells are treated with an agent that promotes ER stress, calreticulin expression can be observed on the external surface of the cells. Promotion of ER stress is a typical mechanism for inducing ICD, and therefore measuring the surface expression of calreticulin is an established method for determining if a compound causes ICD. The effects of ABC294640, an inhibitor of sphingosine kinase-2, on the surface expression of calreticulin in several different types of tumor cells were examined. […] The cells were then incubated with a fluorescently labeled antibody that selectively binds to calreticulin, washed and then analyzed by flow cytometry to quantify the amount of surface calreticulin on many individual cells. The resulting data is analyzed by determining the geometric mean of the fluorescence intensity for the population of cells using algorithms well known in the field of flow cytometry. […] The geometric mean of the fluorescence intensity for cell samples treated with DMSO was expressed as 1.0 and the data for cell samples treated with ABC294640 were expressed relative to the DMSO control. […]
Background: A flow cytometer gives signals particle by particle.

The next data set concerns Lewis Lung carcinoma. Kind of data set: Surface expression of calreticulin by flow cytometry, Lewis Lung carcinoma. The class given is cell-based, murine. The conditions noted are these: 40 μM ABC294640, 24 hours, relative to DMSO control = 1.0, logarithmic scale. As to the method:
as §1

In the next data set the test system is B16-F10. The data set is described as follows: Surface expression of calreticulin by flow cytometry, B16-F10. In kind it is cell-based, murine. The conditions noted are these: B16-F10 (Melanoma); 40 μM ABC294640, 24 hours; relative to DMSO control = 1.0; logarithmic scale. As to the method:
as §1

For data set [2], the system named is B16 tumors. Kind of data set: B16 tumor model, ABC294640 in combination with anti-PD-1 antibody (Example 8). The class given is in vivo, C57BL/6 mice. The method, then:
Agents that induce ICD may enhance the antitumor activity of checkpoint antibodies. […] Anti-mouse PD-1 (Catalog number BE0146) antibody was purchased from BioXCell (West Lebanon, N.H.). C57BL/6 mice were injected with 100,000 B16 cells suspended in PBS into the right hind flank subcutaneously on Day 0 of the experiment. Mice were randomized on Day 3 of the experiment into the following four treatment groups (n=10/group): Control (vehicle only); ABC294640 alone; anti-PD-1 antibody alone; and ABC294640 in combination with anti-PD-1 antibody. ABC294640 was suspended in vehicle (46.7% PEG, 46.7% saline and 6.6% ethanol) and dosed by oral gavage at 50 mg/kg 5 days/week (i.e. days 3-7, 10-14, 17-21, etc.) until sacrifice. Anti-PD-1 antibody was suspended in sterile PBS, and administered by intraperitoneal (i.p.) injection at a dose of 200 μg/mouse on Days 3, 6 and 10. The combination treatment group mice received antibody and ABC294640 treatments concomitantly on days when antibody was scheduled. Control group mice received oral vehicle and/or sterile PBS i.p. on all days that treated mice received either ABC294640 or antibody. Tumors were measured with digital calipers three times per week and volumes were calculated using the formula, (L×W^2)/2. Mice were euthanized when tumor volumes reached ≥3,000 mm^3. […] Tumors in the Control mice grew very aggressively after a lag of approximately 10 days. On Day 19, the average tumor volumes for the Control, ABC294640 alone, anti-PD-1 antibody alone, and combination treatment groups were 1702±373, 892±364, 783±265 and 190±114 mm^3, respectively. […] As directed by the IACUC protocol, each mouse was sacrificed when its tumor volume reached 3,000 mm^3. […] Treatment with ABC294640 alone provided a median survival of 24 days and 30% of the mice were alive on Day 56 when the experiment was terminated (p=0.009).

For the next data set, the system named is TRAMP-C2. The data set is described as follows: Surface expression of calreticulin by flow cytometry, TRAMP-C2. The class given is cell-based. To be noted: TRAMP-C2 (Prostate); 40 μM ABC294640, 24 hours; relative to DMSO control = 1.0; logarithmic scale. The method, then: as §1
The next data set concerns Neuro-2a. Kind of data set: Surface expression of calreticulin by flow cytometry, Neuro-2a. The class given is cell-based, murine. The conditions noted are these: Neuro-2a (Neuroblastoma); 40 μM ABC294640, 24 hours; relative to DMSO control = 1.0; logarithmic scale. As to the method:
as §1

Data set [3] deals with B16 tumors. Kind of data set: B16 tumor model, ABC294640 in combination with anti-PD-L1 antibody (Example 10). The conditions noted are these: B16 tumors ≥300 mm^3 at randomization (Day 1); ABC294640 50 mg/kg oral gavage 5 days/week; anti-PD-L1 antibody 200 μg/mouse i.p. Days 1, 3, 5 and 7; Vehicle 8.5. The class given is in vivo, mice. As to the method:
The combined effects of treating tumor-bearing mice with ABC294640 and anti-PD-L1 antibody were examined in the B16 tumor model. Anti-mouse PD-L1 (catalog number BE0101) antibody was purchased from BioXCell (West Lebanon, N.H.). Mice were injected with 100,000 B16 cells suspended in PBS into the right hind flank subcutaneously on Day 0 of the experiment. When the tumor reached a volume of ≥300 mm^3, mice were randomized into the following four treatment groups (n=5-6/group): Control (vehicle only); ABC294640 alone; anti-PD-L1 antibody alone; and ABC294640 in combination with anti-PD-L1 antibody. The day of randomization is noted as Day 1 of the experiment for each mouse. ABC294640 was suspended in vehicle (46.7% PEG, 46.7% saline and 6.6% ethanol) and dosed by oral gavage at 50 mg/kg 5 days/week until sacrifice. Anti-PD-L1 antibody was suspended in dilution buffer (BioXCell, catalog number IP0070) and administered by intraperitoneal (i.p.) injection at a dose of 200 μg/mouse on Days 1, 3, 5 and 7. The combination treatment group mice received antibody and ABC294640 treatments concomitantly on days when antibody was scheduled. Control group mice received oral vehicle and/or sterile PBS i.p. on all days that treated mice received either ABC294640 or antibody. Tumors were measured with digital calipers three times per week and volumes were calculated using the formula, (L×W^2)/2. […]

Another data set relates to PAN02. The data set is described as follows: Surface expression of calreticulin by flow cytometry, PAN02. The conditions noted are these: PAN02 (Pancreas); 40 μM ABC294640, 24 hours; relative to DMSO control = 1.0; logarithmic scale (2.0 = 10-fold increase). The class given is cell-based. The method, then:
as §1

Turning to nivolumab, in [1], the tolerated dose result is reported as “up to 10 mg/kg”.
Take `O=C(NCc1ccncc1)C12CC3CC(C1)CC(c1ccc(Cl)cc1)(C3)C2` [ABC294640, 3-(4-chlorophenyl)-adamantane-1-carboxylic acid (pyridin-4-ylmethyl)amide]: the median survival was found to be 22 days in the data set with LLC tumors (LLC tumor-bearing mice, sacrificed at tumor volume 3,000 mm^3, Control 19 days); 24 days in the data set with B16 tumors [2] (B16 tumor-bearing mice, sacrificed at tumor volume 3,000 mm^3, Control 21 days); 10 days with B16 tumors [3]. The average tumor volume in the data set with LLC tumors (LLC tumors, Day 21, ABC294640 50 mg/kg oral gavage 5 days/week, anti-CTLA4 antibody 200 μg/mouse i.p. Days 3, 6, 10, 13, 17 and 20, Control 4622±548) is given as 3197±914 mm^3; in the data set on B16 tumors [2] (B16 tumors, Day 19, ABC294640 50 mg/kg oral gavage 5 days/week, anti-PD-1 antibody 200 μg/mouse i.p. Days 3, 6 and 10, Control 1702±373), 892±364 mm^3. Further, the “growth of LLC lung tumors (FIG. 8)” value in the data set on LLC tumors (in words) is on record as “partially inhibited”. In the data set on LLC tumors (in words), the “survival of mice bearing LLC tumors (FIG. 9)” value is “slightly prolonged”. Also, the “Surface calreticulin expression (Geometric mean of fluorescence intensity)” value with E0771 was found to be 1.46; in the data set on Lewis Lung carcinoma, 3.0; in the data set on B16-F10 it was 2.7; in the data set on TRAMP-C2, 3.64; in the data set with Neuro-2a, 3.0; with PAN02, 2.31. In addition, the “mice alive on Day 56” value in the data set with B16 tumors [2] (B16 tumor-bearing mice, experiment terminated Day 56, all Control animals sacrificed by Day 29) came to 30%. In the data set on B16 tumors [2] (in words), the “growth of B16 melanoma tumors (FIG. 6)” value is “partially inhibited”. Further, the “survival of mice bearing B16 melanoma tumors (FIG. 7)” value in the data set on B16 tumors [2] (in words) is “slightly prolonged”.

The values above are taken from patent US20220062250A1, “COMBINATION OF A SK2 INHIBITOR AND AN INHIBITOR OF A CHECKPOINT PATHWAY, USES AND PHARMACEUTICAL COMPOSITIONS THEREOF” (Apogee Biotechnology Corporation, priority 2019, published 2022).
